Columns and labels:
CDK2 = CDK2 (Homo sapiens, UniProt P24941); test: AlphaScreen kinase assay (Rb peptide); assay type: biochemical; settings: ATP Km
Protocol: (§1) For RAF kinases, detailed assay information was described in ref.[18] Briefly, the kinase activity of BRAF WT, BRAF V600E, or CRAF was measured using an AlphaScreen assay (Perkin Elmer, MA) monitoring MEK1/2 phosphorylation at Ser217/221. For CDK2 and CDK4 kinases, activity was also measured by AlphaScreen, monitoring phosphorylation of biotin Rb peptide at Ser780. Similarly, MAP3K7, CSF1R and JAK2 kinase activity was measured by phosphorylation of their biotinylated substrates MKK6 kinase dead protein at Ser271/Thr275, or tyrosine phosphorylation of pEY or Tyk2 Tyr1054/1055 peptides, respectively. CSK, IGF1R, EGFR, FGFR1 and SRC kinase activity was measured using a sandwich ELISA detecting phosphorylated poly EAY peptide with a HRP conjugated phosphotyrosine antibody and TMB substrate, while p38 kinase activity was measured by monitoring phosphorylation of MBP protein with radiolabeled ^33P-ATP in a filter binding format. All assays were screened under respective ATP Km conditions and inhibitor IC50s were derived from either 5 (RAF kinases, CDK2, CDK4, MAP3K7, JAK2), 10 (CSK, IGF1R, EGFR, FGFR1, SRC) or 11 (p38, CSF1R) point compound dose response.

CDK4 = CDK4 (Homo sapiens, UniProt P11802); test: AlphaScreen kinase assay (Rb peptide); assay type: biochemical; settings: ATP Km
Sequence of CDK4 (P11802 whole entry, species assumed): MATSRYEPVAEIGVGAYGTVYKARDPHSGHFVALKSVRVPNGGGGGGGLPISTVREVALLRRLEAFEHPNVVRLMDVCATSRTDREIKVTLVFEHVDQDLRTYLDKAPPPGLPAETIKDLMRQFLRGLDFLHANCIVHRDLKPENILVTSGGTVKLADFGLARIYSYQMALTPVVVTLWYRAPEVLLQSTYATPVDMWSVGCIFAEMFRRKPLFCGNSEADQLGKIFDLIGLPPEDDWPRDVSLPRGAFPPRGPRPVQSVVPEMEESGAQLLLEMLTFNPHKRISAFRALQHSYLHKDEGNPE
Sequence of CDK4 (P24385 whole entry partner, species assumed): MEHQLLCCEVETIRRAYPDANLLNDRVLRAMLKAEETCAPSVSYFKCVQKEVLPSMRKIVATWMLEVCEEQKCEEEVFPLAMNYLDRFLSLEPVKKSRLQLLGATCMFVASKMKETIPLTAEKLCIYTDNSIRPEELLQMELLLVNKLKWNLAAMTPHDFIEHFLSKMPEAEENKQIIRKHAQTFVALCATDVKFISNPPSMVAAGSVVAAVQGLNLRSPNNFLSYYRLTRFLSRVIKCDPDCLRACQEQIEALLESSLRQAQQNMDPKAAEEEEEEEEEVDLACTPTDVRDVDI
Protocol: as §1

[1] = test system: RKO, HT-29, DiFi and Caco-2 cells; test: Western blot analysis in selected CRC cell lines; assay type: cell-based, human; settings: four CRC cell lines
Protocol: For western-blotting in A375, A549 and MC-F7 cell lines, the detailed method was described in ref.[18] […] For western-blot in selected CRC cell lines, the cells were collected after treatment for indicated time and washed twice with cold PBS. Then cells were lysed in 1% Triton lysis buffer (50 mmol/L Tris-HCl, pH 7.4, 10 mmol/L EDTA, 100 mmol/L NaF, 150 mmol/L NaCl, 1% Triton X-100, 1 mmol/L PMSF 1 mmol/L Na3VO4 and 2 μg/mL aprotinin). After sonication and centrifugation, samples were quantified with the Lowry method. Next, all the protein samples were boiled at 95 °C for 5 min with 3× sampling buffer. After that, all the lysate samples were resolved by SDS polyacrylamide gel electrophoresis (SDS-PAGE) and followed by western blotting which means electronically transferred to nitrocellulose membranes. After blocking with 5% skim milk in TBST buffer (10 mM Tris-HCl pH 7.4, 150 mM NaCl, 0.1% Tween 20) at room temperature for 1 h, the blots were incubated with indicated antibodies shaking for 2 h, then overnight at 4 °C. Then the blots were washed four times with TBST buffer, and then incubated with secondary antibodies for 30 min at room temperature. After washing for another four times, the protein bands were detected with enhanced chemiluminescence reagent (SuperSignal Western Pico Chemiluminescent Substrate; Pierce, Rockford, IL, USA) and visualised with the Electrophoresis Gel Imaging Analysis System (DNR Bio-Imaging Systems, Jerusalem, Israel).
(§2) Two V600E mutant BRAF cell lines (RKO, HT-29) and two wild-type BRAF cell lines (DiFi, Caco-2) were treated with DMSO or increasing concentrations of AZ304 (0, 0.1, 1, 10, 100 μM), for 48 h (a) and 72 h (b). Viable cells were determined by MTT assay. c EdU incorporation assay. Four cells lines from (a) were treated with DMSO or indicated AZ304 for 24 h, followed by incubation with EdU and Hoechst in sequence. Hoechst 33342 (blue) and EdU (red) represent cell nuclei and nuclei of proliferative cells, respectively. The percentages of the EdU-positive cells are presented (right). Student’s t-tests were used for statistical analyses. Data are plotted as mean ± SD. *P < 0.05 vs. control; **P < 0.01 vs. control. d These four cells lines from (a) were treated with DMSO or 2 uM AZ304 for 6 h. Expression levels of phosphorylation ERK were analysed by Western blot. e BRAF mutant cell line RKO, and BRAF wild type cell line Caco-2 were treated with DMSO or 2 uM AZ304 for the indicated times. Expression levels of phosphorylation ERK were analysed by Western blot. […] Cell viability was determined by MTT assay

[2] = test system: RKO, HT-29, DiFi and Caco-2 cells; test: EdU incorporation assay; assay type: cell-based, human; settings: four CRC cell lines, 24 h
Protocol: Selected colorectal cancer cells were seeded into 96-well plates (2000–5000 cells per well). After incubation for 24 h, the cells were pretreated with DMSO or AZ304 for 24 h. Then 50 μM of 5-ethynyl-2′-deoxyuridine (EdU, Ribobio, Guangzhou, China) was added to each well and the cells were incubated at 37 °C for 2 h before being fixed with 4% formaldehyde for 30 min and incubated with 2 mg/ml glycine for 5 min. After being washed with PBS for five times, the cells were reacted with 100 μL of 1 × Apollo reaction cocktail for 30 min. Afterwards, the 1 × Hoechst 33342 (5 μg/mL) was used to stain the nuclei.
as §2, with “Hoechst 33342 (blue) and EdU (red) represent cell nuclei and nuclei of proliferative cells, respectively. The percentages of the EdU-positive cells are presented (right). Student’s t-tests were used for statistical analyses. Data are plotted as mean ± SD. *P < 0.05 vs. control; **P < 0.01 vs. control. d These four cells lines from (a) were treated with DMSO or 2 uM AZ304 for 6 h.” left out

[3] = 2 μM AZ304, 10 μg/ml Cetuximab or combination, 36 h

Compound: COc1ccc2c(Nc3cc(NC(=O)c4cccc(C(C)(C)C#N)c4)ccc3C)ncnc2c1 [AZ304]
- IC50 (CDK2): > 10 µM
- IC50 (CDK4): > 10 µM
- BRAF, p-ERK, p-AKT and p-mTOR levels [1, 3]: decreased
- EGFR phosphorylation (p-EGFR) [1, 3]: increased
- phosphorylated SRC and STAT3 [1, 3]: relatively reduced expression levels
- cleaved caspase-9, caspase-3 and PARP ([1]; 2 μM AZ304, 10 μg/ml Cetuximab or combination, 48 h): overtly increased levels
- p-ERK levels ([1]; 2 uM AZ304, 6 h): reduced p-ERK levels in all four CRC cell lines
- DNA replication (EdU-positive cells) [2]: suppressed DNA replication in CRC cells at all concentrations

Source: publication PMC5988692, “AZ304, a novel dual BRAF inhibitor, exerts anti-tumour effects in colorectal cancer independently of BRAF genetic status” (British Journal of Cancer, 2018)
